The source of these data is patent publication US20120177701A1, “COMPOSITIONS COMPRISING IMMUNOSTIMULATORY NUCLEIC ACIDS AND RELATED METHODS” (priority 2010, published 2012).

The target in this series is T1, human TLR8 (Homo sapiens, UniProt Q9NR97).
T1 construct: host or cells: HEK293 (HEK-Blue hTLR8) with NF-kB-inducible SEAP reporter
T1 sequence (Q9NR97 27-1041): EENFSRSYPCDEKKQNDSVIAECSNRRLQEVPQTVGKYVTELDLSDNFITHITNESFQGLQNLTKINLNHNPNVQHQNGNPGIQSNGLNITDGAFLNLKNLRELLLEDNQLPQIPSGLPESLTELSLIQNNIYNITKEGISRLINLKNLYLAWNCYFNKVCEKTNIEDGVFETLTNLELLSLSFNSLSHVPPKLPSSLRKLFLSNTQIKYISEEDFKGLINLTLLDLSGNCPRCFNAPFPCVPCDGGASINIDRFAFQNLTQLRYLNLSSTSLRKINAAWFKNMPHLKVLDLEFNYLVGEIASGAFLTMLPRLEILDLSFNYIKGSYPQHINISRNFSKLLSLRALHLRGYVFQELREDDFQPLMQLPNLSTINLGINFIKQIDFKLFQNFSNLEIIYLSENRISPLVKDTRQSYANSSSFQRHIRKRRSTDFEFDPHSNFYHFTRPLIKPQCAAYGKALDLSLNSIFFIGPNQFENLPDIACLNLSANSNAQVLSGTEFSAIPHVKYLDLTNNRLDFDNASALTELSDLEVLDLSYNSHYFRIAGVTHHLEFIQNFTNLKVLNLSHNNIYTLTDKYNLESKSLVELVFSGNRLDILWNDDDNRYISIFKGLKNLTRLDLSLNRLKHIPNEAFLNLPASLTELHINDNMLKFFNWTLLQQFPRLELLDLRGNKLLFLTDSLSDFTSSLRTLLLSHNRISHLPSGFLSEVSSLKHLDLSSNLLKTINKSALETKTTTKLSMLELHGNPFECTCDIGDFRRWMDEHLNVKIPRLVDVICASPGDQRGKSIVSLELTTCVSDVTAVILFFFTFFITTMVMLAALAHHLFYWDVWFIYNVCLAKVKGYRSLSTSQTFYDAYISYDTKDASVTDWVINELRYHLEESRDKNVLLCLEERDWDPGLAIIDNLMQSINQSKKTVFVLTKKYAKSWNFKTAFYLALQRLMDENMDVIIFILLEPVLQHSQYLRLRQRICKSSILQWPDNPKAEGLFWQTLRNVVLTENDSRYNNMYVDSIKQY
As to the kind of experiment: HEK-Blue hTLR8 NF-kB-inducible SEAP reporter assay (TLR8 activation). The class given is cell-based.

Consider “5′-GAGAUGUUAUUUUGUUUUUAAUAUUUC-3′ (phosphorothioate backbone, further chemistry not given here) [SL-0001, phosphorothioated 27-ribonucleotide from the 3′-terminus of Chikungunya virus strain TSI-GSD-218, bases 12010-12036]”, for which the “TLR8 activation (fold increase of SEAP induction over the background), described in words” value was “stronger levels of TLR8 activation” and the “concentration at which TLR8 activation was detected starting” value is reported as 40 nM.
